Data from patent US20160002204A1 (Board of Regents, The University of Texas System, priority 2014, published 2016).

Experiments:
[1] = molecular target: T1, GLS1 (purified recombinant human GAC) (Homo sapiens, UniProt O94925); assay: GLS1 enzymatic activity assay (dual-coupled, Amplex UltraRed/resorufin); assay type: biochemical
T1 sequence (O94925 55-598 isoform O94925-3 limits assumed): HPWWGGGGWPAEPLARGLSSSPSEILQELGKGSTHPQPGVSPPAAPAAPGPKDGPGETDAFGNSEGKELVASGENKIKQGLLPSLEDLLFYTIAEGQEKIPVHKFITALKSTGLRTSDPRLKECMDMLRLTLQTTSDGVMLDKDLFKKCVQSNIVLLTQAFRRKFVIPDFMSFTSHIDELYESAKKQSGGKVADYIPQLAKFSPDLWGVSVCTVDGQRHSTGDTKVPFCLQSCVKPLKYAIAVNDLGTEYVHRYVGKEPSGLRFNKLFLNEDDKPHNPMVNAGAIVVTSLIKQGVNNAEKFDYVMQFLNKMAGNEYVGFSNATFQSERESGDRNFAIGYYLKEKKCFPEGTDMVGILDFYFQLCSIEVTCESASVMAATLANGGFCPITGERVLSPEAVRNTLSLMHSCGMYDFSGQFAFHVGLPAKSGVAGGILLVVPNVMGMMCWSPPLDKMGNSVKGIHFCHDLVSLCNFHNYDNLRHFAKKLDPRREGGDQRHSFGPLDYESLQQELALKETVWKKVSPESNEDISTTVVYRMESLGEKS
Procedure, shortened: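 GAC activity measured by coupling glutamate to glutamate oxidase and HRP, generating resorufin from Amplex UltraRed. Enzyme (2 nM) preincubated with 50 mM potassium phosphate 10 min at room temperature, then inhibitor 10 min; 1 mM glutamine substrate, 1% DMSO. Fluorescence 530/590 nm, kinetic or 20-min endpoint; IC50 from four-parameter logistic fit.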

A549 cells = assay: A549 proliferation (viability) assay, Cell Titer Fluor, 72 hours; assay type: cell-based; conditions: Homo sapiens
Procedure, shortened: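 A549 cells in RPMI 1640 with 10% dialyzed FBS were seeded at 1000 cells/well, grown 24 h, then exposed to compound (0.5% DMSO final) for 72 h at 37 °C, 5% CO2. Viability was read by Cell Titer Fluor fluorescence; EC50 from four-parameter logistic fit.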

| IC50 [1] [nM] | EC50 (A549 cells) [nM] | SMILES |
| --- | --- | --- |
| < 100 | 100 to 500 | CC(C)COC(=O)Nc1ccn(CCC(F)Cn2cc(C(=O)NCc3cc(C(F)(F)F)ccn3)nn2)c(=O)n1 (centres unmarked) [Example 490, 2-methylpropyl N-(1-{3-fluoro-4-[4-({[4-(trifluoromethyl)pyridin-2-yl]methyl}carbamoyl)-1H-1,2,3-triazol-1-yl]butyl}-2-oxo-1,2-dihydropyrimidin-4-yl)carbamate] |
| 100 to 500 | < 100 | Cc1ccc(CNC(=O)c2cn(CC(F)CCn3ccc(NC(=O)OC4CCC4)c(F)c3=O)nn2)cn1 (centres unmarked) [Example 396, cyclobutyl N-{3-fluoro-1-[3-fluoro-4-(4-{[(6-methylpyridin-3-yl)methyl]carbamoyl}-1H-1,2,3-triazol-1-yl)butyl]-2-oxo-1,2-dihydropyridin-4-yl}carbamate] |
| 100 to 500 | 100 to 500 | O=C(CN1CCCCC1)Nc1ccn(CCC(F)Cn2cc(C(=O)NCc3cccc(C(F)(F)F)n3)nn2)c(=O)c1F (centres unmarked) [Example 338, 1-(2-fluoro-4-{3-fluoro-2-oxo-4-[2-(piperidin-1-yl)acetamido]-1,2-dihydropyridin-1-yl}butyl)-N-{[6-(trifluoromethyl)pyridin-2-yl]methyl}-1H-1,2,3-triazole-4-carboxamide] |
| < 100 | < 100 | O=C(Nc1ccn(CCC(F)Cn2cc(C(=O)NCc3cccc(C(F)(F)F)c3)nn2)c(=O)c1F)C(=O)N1CCCCC1 (centres unmarked) [Example 421, 1-(2-fluoro-4-{3-fluoro-2-oxo-4-[2-oxo-2-(piperidin-1-yl)acetamido]-1,2-dihydropyridin-1-yl}butyl)-N-{[3-(trifluoromethyl)phenyl]methyl}-1H-1,2,3-triazole-4-carboxamide] |

Second part, the molecule before the results:

| SMILES | IC50 [1] [nM] | EC50 (A549 cells) [nM] |
| --- | --- | --- |
| COCCNC(=O)c1nnc(CCCCn2ccc(NC(=O)OCc3ccccc3)nc2=O)s1 [Example 121, benzyl N-[1-(4-{5-[(2-methoxyethyl)carbamoyl]-1,3,4-thiadiazol-2-yl}butyl)-2-oxo-1,2-dihydropyrimidin-4-yl]carbamate] | 500 to 5000 | > 5000 |
| O=C(NCc1cccc(C(F)(F)F)c1)c1cn(CCCCn2ccc(NC(=O)C3CCCCC3)cc2=O)nn1 [Example 152, 1-[4-(4-cyclohexaneamido-2-oxo-1,2-dihydropyridin-1-yl)butyl]-N-{[3-(trifluoromethyl)phenyl]methyl}-1H-1,2,3-triazole-4-carboxamide] | < 100 | 100 to 500 |
| O=C(Cc1ccccc1)Nc1ccn(CCCCc2ccc(NC(=O)Cc3cccc(OC(F)(F)F)c3)nn2)c(=O)c1 [Example 14, N-(2-oxo-1-(4-(6-(2-(3-(trifluoromethoxy)phenyl)acetamido)pyridazin-3-yl)butyl)-1,2-dihydropyridin-4-yl)-2-phenylacetamide] | < 100 | < 100 |
| CC(=O)OC(C(=O)Nc1ccn(CC[C@H](F)Cn2cc(C(=O)NCc3cc(C(F)(F)F)ccn3)nn2)c(=O)c1F)c1ccccc1 (stereo partly drawn) [Example 325, (S)-[(3-fluoro-1-{3-fluoro-4-[4-({[4-(trifluoromethyl)pyridin-2-yl]methyl}carbamoyl)-1H-1,2,3-triazol-1-yl]butyl}-2-oxo-1,2-dihydropyridin-4-yl)carbamoyl](phenyl)methyl acetate] | < 100 | < 100 |
| O=C(CC1CCCCC1)Nc1ccn(CCCCn2cc(C(=O)NCc3cc(C(F)(F)F)ccn3)nn2)c(=O)c1 [Example 194, 1-{4-[4-(2-cyclohexylacetamido)-2-oxo-1,2-dihydropyridin-1-yl]butyl}-N-{[4-(trifluoromethyl)pyridin-2-yl]methyl}-1H-1,2,3-triazole-4-carboxamide] | < 100 | < 100 |
| Nc1ccn(CCC(F)Cn2cc(C(=O)NCc3cccc(OC(F)(F)F)c3)nn2)c(=O)c1F (centres unmarked) [Example 282, 1-[4-(4-amino-3-fluoro-2-oxo-1,2-dihydropyridin-1-yl)-2-fluorobutyl]-N-{[3-(trifluoromethoxy)phenyl]methyl}-1H-1,2,3-triazole-4-carboxamide] | 500 to 5000 | > 5000 |
